Source: PubChem BioAssay AID179 (DTP/NCI, 2004)
Active and inactive are the calls of the source.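 How the source made its calls: active means compounds giving half or more protection of infected cells from virus-caused growth loss, again on retest; inactive means the rest.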

Tested on: CEM cells HIV-1 protection, formazan growth assay
Assay: NCI AIDS Antiviral Assay
Settings: for IC50: measured here: growth of uninfected CEM cells
In short: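 CEM (human) cells, HIV-1 infected vs uninfected, 5-point dosing, formazan growth read-out. Retest threshold 50% protection.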

| Compound | EC50 [µM] | IC50 [µM] | outcome |
| --- | --- | --- | --- |
| Cc1cc(C)n2nc3c4ccsc4ncc3c2n1 | > 45.7 | > 45.7 |  |
| COc1ccccc1/C=C/C(=O)c1ccccc1 | > 57.5 | 11.2 |  |
| NC(=N/N=C(/c1ccccc1)c1ccc(N)cc1)/C(N)=N\N=C(/c1ccccc1)c1ccc(N)cc1 |  |  | inactive |
| CN(C)c1ccc(/C=C2\Oc3cc(O)ccc3C2=O)cc1 | > 200 | 45.7 |  |
| Cc1ccc(S(=O)(=O)Nn2c(S)c(C#N)c(-c3ccc([N+](=O)[O-])cc3)c(C#N)c2=O)cc1 | > 200 | 30.9 |  |
| CNC(=O)Oc1ccc(Cl)cc1SSc1cc(Cl)ccc1OC(=O)NC | > 200 | 8.32 |  |
| CCCN(CCC)c1nc2ccc(NC(=O)OCC)cc2s1 | > 42.7 | 32.4 |  |
| COC1=C(C(=O)OC(C)(C)C)C2C(C(=O)OC(C)(C)C)C(OC)=C(C(=O)OC(C)(C)C)C2C1C(=O)OC(C)(C)C (stereo unspecified) | > 31.6 | 17 |  |
| CCO/C(=C/C(=O)OC)NCCc1c[nH]c2ccccc12 | > 138 | 135 |  |
| O=[N+]([O-])c1nccn1CCCNCCCn1ccnc1[N+](=O)[O-] | > 200 | > 200 |  |
| CCC1=NC(N/N=C/c2ccco2)=N/C1=C\c1ccccc1O | > 50.1 |  |  |
| CN(/N=C\c1ccnc2ccccc12)c1ccc([N+](=O)[O-])cc1 |  |  | inactive |
| Cc1cc(C)c2c(c1)CC1(Cc3c(C)ccc(C)c3C1=O)C2=O (stereo unspecified) | > 100 | > 100 |  |
| O=C1C=CC(=O)c2c1ccc1c3ccccc3n(CCCCCn3c4ccccc4c4ccc5c(c43)C(=O)C=CC5=O)c21 | > 200 | 3.31 |  |
| N#Cc1ccc(C=C2C(=O)NC(=O)NC2=O)cc1 | > 209 | 107 |  |
| N#Cc1ccc(Oc2cccc(N)c2)cc1C#N | > 214 | > 214 |  |
| O=C(Nc1ccc(O)cc1C(=O)O)c1ccc(O)cc1 | > 229 | > 229 |  |
| CN1C(=O)c2ccccc2Cc2c(Cl)ncnc21 | > 200 | 34.7 |  |
| CS(=O)(=O)OCC1CN(S(C)(=O)=O)c2cc(O)ccc21 (stereo unspecified) | > 200 | 1.51 |  |
| O=C1C2=C(c3ccccc31)C(c1ccccc1)NC(=S)N2 (stereo unspecified) | > 89.1 | 37.2 |  |
| O=C(Nc1ccccc1)c1cc2c(cc1Cl)Sc1nccn1S2(=O)=O | > 200 | > 100 |  |
| CCCCCOC(=O)c1ccc(NC(=O)CN(CC)CC)cc1 | > 200 | 55 |  |

| Compound | EC50 [µM] | IC50 [µM] | outcome |
| --- | --- | --- | --- |
| COc1ccc(N2C(=O)C3c4[nH]c5ccc(F)cc5c4C4CCC(C(C)(C)C)CC4C3C2=O)cc1 (stereo unspecified) | > 200 | 22.4 |  |
| Cc1ccc(/C([O-])=C(\C(=S)Nc2cccc(Cl)c2)[n+]2ccccc2)cc1 | > 200 | 25.1 |  |
| Cc1cc(Cl)c(O)c(-c2cc(-c3ccc([N+](=O)[O-])cc3)c3c(N)[nH]c(=O)nc3n2)c1 | > 200 | 5.25 |  |
| CCN(CC)CCCC(C)Nc1cc(C)nc2c1ccc1c2ccc2c(NC(C)CCCN(CC)CC)cc(C)nc21 (stereo unspecified) | > 66.1 | 3.98 |  |
| O=C1c2cccc3cc([N+](=O)[O-])cc(c23)C(=O)N1Cc1ccccc1 | > 200 | 5.75 |  |
| O=C1/C(=C/c2ccccc2)CN(C(=O)CCN2CCCC2)C/C1=C\c1ccccc1 | > 575 | 0.813 |  |
| COc1ccc(N=C/C=C/Nc2ccc(OC)cc2)cc1 | > 200 | 7.41 |  |
| CC(C)CS(=O)(=O)/C(=C(\c1ccc(Br)cc1)S(=O)(=O)CC(C)C)c1ccc(Br)cc1 | > 1.29 | > 1.29 |  |
| O=C1/C(=C/c2ccccc2)NC(=S)N1CN1CCCCC1 | > 200 | 33.9 |  |
| CN=c1ss/c(=N\C(=S)N(C)C)n1-c1ccccc1 |  |  | inactive |
| c1ccc([S+]([CH2][Hg][CH2][S+](c2ccccc2)c2ccccc2)c2ccccc2)cc1 | > 30.2 | 10 |  |
| Cc1ccc(NC(=O)CC2Sc3ccccc3NC2=O)cc1C (stereo unspecified) | > 6.17 | > 6.17 |  |
| Cc1[nH]n(C(=O)c2ccc(Cl)cc2)c(=O)c1/C=C1\C(O)=CC(=O)c2ccccc21 | > 12.9 | > 12.9 |  |
| COc1ccc(N=Nc2c(-c3ccccc3)nn(C(=O)CC(=O)Nc3cccc(Cl)c3)c2-c2ccccc2)cc1 | > 18.2 | > 18.2 |  |
| Cc1cc(C)c2c(c1)CC2NC(=O)Cc1ccccc1 (stereo unspecified) | > 26.9 | > 26.9 |  |
| CCSC(CC(O)C(O)C(O)CO)SCC (stereo unspecified) | > 200 | > 200 |  |
| CC(c1ccccc1)N1OC1(c1ccccc1)c1ccccc1 (stereo unspecified) | > 105 | 14.5 |  |
| c1ccc2c(c1)nnn2CNc1ccc(N2CCCCC2)cc1 | > 200 | 51.3 |  |
| COc1cc(C2c3cc4c(cc3CC3COC(=O)N32)OCO4)cc(OC)c1OC (stereo unspecified) | > 25.1 | 1.38 |  |
| COC(=O)C1=C(C(=O)OC)C2(C(=O)OC)OC1(OC)C(C1(C(=O)OC)C(C(=O)OC)=C1C(=O)OC)=C2C(=O)OC (stereo unspecified) |  |  | inactive |
| C=C1[C@H]2C[C@H]3[C@@H]4N5C[C@]6(C)CCCC47C6[C@H]5CC3([C@@H]1O)[C@H]7[C@H]2O |  |  | inactive |
| CC(=O)OCc1ncccc1C(OC(C)=O)OC(C)=O | > 891 | > 891 |  |

| Compound | EC50 [µM] | IC50 [µM] | outcome |
| --- | --- | --- | --- |
| N/C(=N/N=C/c1ccc2ccccc2n1)NO |  |  | inactive |
| N#CC1C2C=CC(CCC2)C1C#N (stereo unspecified) | > 200 | > 200 |  |
| COP(=O)(OC)c1ccc(NCc2cc(O)ccc2O)cc1 | > 55 | 7.94 |  |
| O=c1[nH]c2ccc(Cl)cc2c2oc(-c3ccccc3)nc12 |  |  | inactive |
| COC(=O)C(C(=O)C(=O)NC1=C(Cl)C(=O)c2ccccc2C1=O)c1csc(-n2nc(-c3ccccc3)cc2-c2ccccc2)n1 (stereo unspecified) | > 11.2 | > 11.2 |  |
| CCCCCCC(O)C/C=C/CCCCCC/C(C(=O)OC)=C(/O)C(=O)OCC (stereo unspecified) | > 83.2 | > 83.2 |  |
| COc1ccc(C2OCC3C(c4ccc(OC)c(OC)c4)OCC23)cc1OC (stereo unspecified) | > 200 | 97.7 |  |
| c1ccc(N/N=C2\NN=C(c3ccccc3)CS2)cc1 | > 66.1 | 35.5 |  |
| C[n+]1c(-c2ccc(/C=N/NC(=O)c3cc(O)c(C(=O)N/N=C/c4ccc(-c5cn6ccccc6[n+]5C)cc4)cc3O)cc2)cn2ccccc21 | > 6.31 | > 6.31 |  |
| O=C(c1cc(Cl)ccc1Cl)N1CCN(c2ccc(Cl)c(Cl)c2)CC1 | > 200 | 25.1 |  |
| COc1cc(N)c2c(c1)SC(C)C(=O)N2 (stereo unspecified) | > 200 | 186 |  |
| CN(C)c1ccc(/C=C2/SC(=S)NC2=O)cc1 | > 38 | > 38 |  |
| CN(C)c1ccc(/C=C2\Oc3ccccc3C2=O)cc1 | > 200 | > 200 |  |
| CSc1ncnc2c1C[P+](Cc1ccccc1)(c1ccccc1)CC2 (stereo unspecified) | > 562 | > 562 |  |
| CCOC(CN(C)C(=S)Nc1cccc2ccccc12)OCC | > 200 | 158 |  |
| O=C(O)c1ccc(CS(=O)(=O)c2ccccc2C(=O)O)cc1 | > 776 | > 776 |  |
| COc1ccccc1/C=C/C(=O)c1sc(-c2cccnc2)nc1C | > 15.5 | > 15.5 |  |
| CC(C)CCS(=O)(=O)O | > 200 | > 200 |  |
| Cc1ccc2[nH]c3c(c2c1)[n+]([O-])c1ccccc1[n+]3[O-] | > 200 | 38.9 |  |
| NCCS(=O)(=O)O | > 200 | > 200 |  |
| O=C(O/C(=C(/N=Nc1ccccc1)c1ccccc1)c1ccccc1)c1ccccc1 |  |  | inactive |
